Test [1] has as its target T1, Estrogen receptor (Homo sapiens) (UniProt P03372).
T1 sequence (whole entry): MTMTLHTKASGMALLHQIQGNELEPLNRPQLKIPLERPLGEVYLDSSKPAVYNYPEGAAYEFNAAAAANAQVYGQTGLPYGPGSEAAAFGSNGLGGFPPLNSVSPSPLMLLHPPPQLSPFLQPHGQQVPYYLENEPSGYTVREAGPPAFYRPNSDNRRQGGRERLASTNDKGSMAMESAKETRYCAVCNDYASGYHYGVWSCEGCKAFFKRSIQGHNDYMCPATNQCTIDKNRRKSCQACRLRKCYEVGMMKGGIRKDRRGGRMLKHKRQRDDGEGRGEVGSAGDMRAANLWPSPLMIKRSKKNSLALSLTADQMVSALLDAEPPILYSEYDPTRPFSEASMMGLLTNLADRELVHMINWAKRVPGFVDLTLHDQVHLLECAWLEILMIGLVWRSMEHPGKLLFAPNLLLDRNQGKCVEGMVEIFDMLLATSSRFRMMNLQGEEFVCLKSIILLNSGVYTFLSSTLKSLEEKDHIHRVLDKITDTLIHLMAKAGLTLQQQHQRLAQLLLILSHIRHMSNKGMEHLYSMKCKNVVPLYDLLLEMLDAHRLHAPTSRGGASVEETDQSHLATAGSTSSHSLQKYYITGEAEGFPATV
In words: Antagonist activity at human ERalpha receptor expressed in human HeLa cells assessed as inhibition of DHT-induced response after 40 hrs by luciferase/beta-galactosidase-based reporter gene assay. The test is classed as functional, cell-based. (A reporter such as luciferase makes a cellular process visible.)

For test [2], the target named is T2, 17-beta-hydroxysteroid dehydrogenase type 2 (Homo sapiens) (UniProt P37059).
T2 sequence (whole entry): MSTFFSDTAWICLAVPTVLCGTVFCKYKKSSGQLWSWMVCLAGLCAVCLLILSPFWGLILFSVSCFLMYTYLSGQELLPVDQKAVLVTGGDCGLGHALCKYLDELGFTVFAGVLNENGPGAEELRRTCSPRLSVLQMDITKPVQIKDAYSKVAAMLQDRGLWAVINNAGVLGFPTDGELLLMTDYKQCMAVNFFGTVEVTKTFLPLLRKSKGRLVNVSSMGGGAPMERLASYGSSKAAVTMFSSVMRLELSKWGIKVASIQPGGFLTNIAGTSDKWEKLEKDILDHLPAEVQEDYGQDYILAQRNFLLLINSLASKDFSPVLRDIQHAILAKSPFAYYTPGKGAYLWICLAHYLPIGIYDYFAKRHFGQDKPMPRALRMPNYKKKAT
Put plainly: Inhibition of human recombinant 17-beta-HSD2 expressed in human HeLa cells using estradiol as substrate preincubated for 30 mins prior substrate addition measured after 120 mins by spectrophotometry. The test is classed as cell-based.

Test [3] addresses T3, Glucocorticoid receptor (Homo sapiens) (UniProt P04150).
T3 sequence (whole entry): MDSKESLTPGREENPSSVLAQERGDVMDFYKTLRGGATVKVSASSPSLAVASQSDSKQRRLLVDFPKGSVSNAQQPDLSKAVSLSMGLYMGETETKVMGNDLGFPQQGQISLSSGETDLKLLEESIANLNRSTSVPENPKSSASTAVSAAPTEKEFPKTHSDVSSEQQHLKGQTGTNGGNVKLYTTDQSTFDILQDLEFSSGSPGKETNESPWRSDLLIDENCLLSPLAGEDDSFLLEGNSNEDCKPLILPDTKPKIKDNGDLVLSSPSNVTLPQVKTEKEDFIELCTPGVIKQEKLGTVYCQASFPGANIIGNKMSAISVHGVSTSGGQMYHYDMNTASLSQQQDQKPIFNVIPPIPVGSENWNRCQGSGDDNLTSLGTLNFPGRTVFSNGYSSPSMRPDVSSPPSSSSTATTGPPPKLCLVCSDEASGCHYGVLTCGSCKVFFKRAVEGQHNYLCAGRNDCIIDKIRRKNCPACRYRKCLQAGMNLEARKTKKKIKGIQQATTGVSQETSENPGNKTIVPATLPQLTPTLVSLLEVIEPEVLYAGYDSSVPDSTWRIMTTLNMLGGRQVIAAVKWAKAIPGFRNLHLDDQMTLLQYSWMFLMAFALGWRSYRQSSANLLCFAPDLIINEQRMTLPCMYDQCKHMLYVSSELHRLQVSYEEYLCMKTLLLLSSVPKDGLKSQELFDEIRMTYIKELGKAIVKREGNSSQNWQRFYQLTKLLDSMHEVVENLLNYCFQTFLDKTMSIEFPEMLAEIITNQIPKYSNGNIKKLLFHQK
In words: Antagonist activity at human GR receptor expressed in human HeLa cells assessed as inhibition of DHT-induced response after 40 hrs by luciferase/beta-galactosidase-based reporter gene assay. In kind it is functional, cell-based.

Test [4] has as its target T4, 17-beta-hydroxysteroid dehydrogenase type 3 (Homo sapiens, UniProt P37058).
T4 sequence (P37058 whole entry): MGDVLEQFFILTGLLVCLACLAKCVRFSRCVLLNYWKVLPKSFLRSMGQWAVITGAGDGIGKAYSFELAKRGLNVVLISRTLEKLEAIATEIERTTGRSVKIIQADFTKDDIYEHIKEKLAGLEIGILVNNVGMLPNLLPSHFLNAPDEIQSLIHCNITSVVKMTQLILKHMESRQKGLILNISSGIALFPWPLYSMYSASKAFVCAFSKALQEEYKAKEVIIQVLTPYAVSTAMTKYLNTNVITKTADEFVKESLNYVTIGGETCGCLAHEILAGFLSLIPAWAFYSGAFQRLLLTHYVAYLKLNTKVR
Description: Inhibition of human recombinant 17-beta-HSD3 expressed in human HeLa cells using androstenedione as substrate preincubated for 30 mins prior substrate addition measured after 120 mins by spectrophotometry

The target in test [5] is T5, Androgen receptor (Homo sapiens) (UniProt P10275).
T5 sequence (whole entry): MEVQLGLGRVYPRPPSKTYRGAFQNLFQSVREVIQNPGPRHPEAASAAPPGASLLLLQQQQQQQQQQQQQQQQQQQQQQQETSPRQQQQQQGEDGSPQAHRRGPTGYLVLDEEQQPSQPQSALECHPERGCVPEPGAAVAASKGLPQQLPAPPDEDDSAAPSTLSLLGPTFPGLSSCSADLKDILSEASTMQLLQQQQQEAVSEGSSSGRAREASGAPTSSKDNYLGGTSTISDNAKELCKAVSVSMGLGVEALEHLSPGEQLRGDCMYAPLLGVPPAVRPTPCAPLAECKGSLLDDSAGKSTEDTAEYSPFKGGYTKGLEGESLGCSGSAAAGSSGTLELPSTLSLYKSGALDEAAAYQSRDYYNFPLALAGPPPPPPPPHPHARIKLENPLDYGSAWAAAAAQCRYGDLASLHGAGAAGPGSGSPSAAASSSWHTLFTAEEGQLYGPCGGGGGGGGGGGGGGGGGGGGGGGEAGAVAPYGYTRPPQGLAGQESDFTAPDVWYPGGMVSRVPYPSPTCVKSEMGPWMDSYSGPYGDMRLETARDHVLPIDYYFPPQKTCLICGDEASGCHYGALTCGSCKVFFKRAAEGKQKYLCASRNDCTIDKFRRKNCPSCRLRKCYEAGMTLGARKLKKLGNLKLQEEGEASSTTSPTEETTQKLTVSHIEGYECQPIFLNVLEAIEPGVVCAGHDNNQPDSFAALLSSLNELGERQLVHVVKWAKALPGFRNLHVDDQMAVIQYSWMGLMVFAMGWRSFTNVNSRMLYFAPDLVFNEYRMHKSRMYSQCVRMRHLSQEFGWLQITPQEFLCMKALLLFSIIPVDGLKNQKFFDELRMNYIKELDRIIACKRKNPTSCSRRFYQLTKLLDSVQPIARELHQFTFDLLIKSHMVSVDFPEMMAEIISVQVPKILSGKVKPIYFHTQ
Put plainly: Antagonist activity at human androgen receptor expressed in human HeLa cells assessed as inhibition of DHT-induced response after 40 hrs by luciferase/beta-galactosidase-based reporter gene assay. In kind it is functional, cell-based.

The target in test [6] is T3, Glucocorticoid receptor (Homo sapiens). Put plainly: Agonist activity at human Glucocorticoid receptor expressed in human HeLa cells assessed as DHT-induced response after 40 hrs by luciferase/beta-galactosidase-based reporter gene assay. In kind it is functional, cell-based.
Test [7] has as its target T5, Androgen receptor (Homo sapiens). Put plainly: Agonist activity at human androgen receptor expressed in human HeLa cells assessed as DHT-induced response after 40 hrs by luciferase/beta-galactosidase-based reporter gene assay. In kind it is functional, cell-based.
The target of test [8] is T6, 17-beta-hydroxysteroid dehydrogenase type 1 (Homo sapiens) (UniProt P14061).
T6 sequence (whole entry): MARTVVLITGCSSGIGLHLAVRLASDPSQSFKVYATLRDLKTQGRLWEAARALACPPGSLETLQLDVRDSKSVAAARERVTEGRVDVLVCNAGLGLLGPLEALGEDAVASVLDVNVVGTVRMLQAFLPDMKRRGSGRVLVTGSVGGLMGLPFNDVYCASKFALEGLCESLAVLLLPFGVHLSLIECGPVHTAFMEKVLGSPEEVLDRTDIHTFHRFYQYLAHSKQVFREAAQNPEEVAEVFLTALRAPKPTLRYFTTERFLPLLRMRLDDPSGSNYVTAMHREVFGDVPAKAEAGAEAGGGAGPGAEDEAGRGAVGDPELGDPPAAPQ
Put plainly: Inhibition of human recombinant 17-beta-HSD1 expressed in human HeLa cells using estrone as substrate preincubated for 30 mins prior substrate addition measured after 120 mins by spectrophotometry. In kind it is cell-based.

Test [9] deals with T1, Estrogen receptor (Homo sapiens). Put plainly: Agonist activity at human Estrogen receptor ERalpha expressed in human HeLa cells assessed as DHT-induced response after 40 hrs by luciferase/beta-galactosidase-based reporter gene assay. In kind it is functional, cell-based.

Calls of active or inactive are those of the source. No rule for the calls is given here.

The term IC50 denotes the concentration that gives 50% inhibition. The low end stands for greater potency, the high end for weaker potency. Take `COc1ccc(N2C(=O)/C(=C/c3ccc(O)c(F)c3)OC2=S)cc1`: the outcome in test [1], in test [3], in [5], in [6], in test [7] and in [9] was inactive. Moreover, the inhibition result in test [2] and in test [8] was “inactive” in each case. For the same molecule, the concentration for half-maximal inhibition (IC50) in test [4] is 2 nM.

Take `COc1ccc(N2C(=O)/C(=C(/C)c3ccc(O)c(Br)c3)SC2=S)cc1`: the outcome in [1], in test [3], in test [5], in test [6], in test [7] and in test [9] was inactive. Also, the inhibition result in test [2] and in [8] was “inactive” each time. Further, the IC50 in test [4] amounted to 90 nM.

Consider `Cc1ccc(N2C(=O)/C(=C/c3ccc(O)c(Br)c3)OC2=S)cc1`, for which the outcome in [1], in test [3], in [5], in test [6], in test [7] and in test [9] was inactive. In addition, the inhibition result in test [2] and in test [8] was “inactive” throughout. The molecule further registered an IC50 in test [4] of 2 nM.

As for `COc1ccc(N2C(=O)/C(=C/c3ccc(O)c(Br)n3)OC2=S)cc1`, the result in test [1], in test [3], in [5], in test [6], in [7] and in test [9] was inactive. Further, the inhibition entry in test [2] and in test [8] was “inactive” each time. Besides, 42 nM corresponded to half-maximal inhibition in test [4] (IC50).

`COc1ccc(CN2C(=O)/C(=C/c3ccc(O)c(Br)c3)SC2=S)cc1`: the outcome in test [1], in test [3], in test [5], in [6], in [7] and in test [9] was inactive. Besides, the inhibition entry in test [2] and in test [8] was “inactive” in each case. Also, in test [4], the IC50 was found to be 90 nM.

For `COc1ccc(N2C(=O)/C(=C/c3ccc(O)c(OC)c3)OC2=S)cc1`, the outcome in test [1], in test [3], in test [5], in test [6], in test [7] and in test [9] was inactive. For the same molecule, the inhibition entry in test [2] and in test [8] was “inactive” throughout. Besides, the midpoint of inhibition in test [4], the IC50, lay at 270 nM.

In the case of `CN(C)c1ccc(N2C(=O)O/C(=C\c3ccc(O)c(Br)c3)C2=O)cc1`, the outcome in [1], in test [3], in test [5], in [6], in test [7] and in test [9] was inactive. In addition, the inhibition entry in test [2] and in test [8] was “inactive” throughout. In [4], this molecule displayed an IC50 of 25 nM.

As for `O=C1/C(=C/c2ccc(O)c(Br)c2)SC(=S)N1C1CCOCC1`, the outcome in [1], in test [3], in test [5], in test [6], in test [7] and in test [9] was inactive. The inhibition result in [2] and in test [8] was “inactive” throughout. In test [4], this molecule yielded an IC50 of 75 nM.

The values are drawn from ChEMBL document CHEMBL2016457, “Discovery of potent and orally bioavailable 17β-hydroxysteroid dehydrogenase type 3 inhibitors” (Bioorg Med Chem, 2012).
